In US7935724B2, “Thiophene and benzothiophene hydroxamic acid derivatives” (Merck HDAC Research, LLC, priority 2003, dated 2011):

Molecular target: T1, histone deacetylase, subtype 1 (HDAC1) (Homo sapiens, UniProt Q13547)
T1 construct: Flag; made in house
Assay: HDAC1-Flag assay (in vitro deacetylation assay)
Format: biochemical
Details: Table 1, benzothiophene backbone; concentration for 50% inhibition of deacetylation; substrate at Km; unit inferred, text gives nm; read-out: HDAC Inhibition
Procedure: Novel compounds were tested for their ability to inhibit histone deacetylase, subtype 1 (HDAC1) using an in vitro deacetylation assay. The enzyme source for this assay was an epitope-tagged human HDAC1 complex immuno-purified from stably expressing mammalian cells. The substrate consisted of a commercial product containing an acetylated lysine side chain (BIOMOL Research Laboratories, Inc., Plymouth Meeting, Pa.). Upon deacetylation of the substrate by incubation with the purified HDAC1 complex, a fluorophore is produced that is directly proportional to the level of deacetylation.

T1 sequence (Q13547 whole entry): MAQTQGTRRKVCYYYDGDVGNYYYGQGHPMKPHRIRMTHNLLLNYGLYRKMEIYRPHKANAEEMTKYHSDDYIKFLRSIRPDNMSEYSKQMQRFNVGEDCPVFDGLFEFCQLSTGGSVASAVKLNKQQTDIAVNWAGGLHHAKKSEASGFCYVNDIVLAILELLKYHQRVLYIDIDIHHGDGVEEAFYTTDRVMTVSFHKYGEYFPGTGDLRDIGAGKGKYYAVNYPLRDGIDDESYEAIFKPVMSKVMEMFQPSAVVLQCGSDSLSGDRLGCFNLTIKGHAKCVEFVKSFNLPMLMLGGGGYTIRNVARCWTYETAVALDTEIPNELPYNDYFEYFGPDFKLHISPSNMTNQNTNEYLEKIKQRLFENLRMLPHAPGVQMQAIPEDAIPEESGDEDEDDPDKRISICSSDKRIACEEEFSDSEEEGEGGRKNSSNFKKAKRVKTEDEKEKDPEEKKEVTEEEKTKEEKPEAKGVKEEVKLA

| Compound | IC50 |
| --- | --- |
| O=C(NO)c1cc2ccccc2s1 [Compound 1] | 672 ± 98.9 nM |
| O=C(Nc1ccc2cc(C(=O)NO)sc2c1)c1ccccc1 [Compound 5] | 204 ± 48.7 nM |
| CC(C)C(=O)Nc1ccc2cc(C(=O)NO)sc2c1 [Compound 9] | 156 ± 33.2 nM |
| O=C(NO)c1cc2ccc(NS(=O)(=O)Cc3ccccc3)cc2s1 [Compound 11] | 41 ± 11.3 nM |
| O=C(NO)c1cc2ccc(NS(=O)(=O)c3ccc(-c4ccccc4)cc3)cc2s1 [Compound 12] | 45 ± 32.5 nM |
| O=C(/C=C/c1ccccc1)Nc1ccc2sc(C(=O)NO)cc2c1 [Compound 16] | 185 ± 52.3 nM |
| O=C(NO)c1cc2cc(NS(=O)(=O)c3ccc(-c4ccccc4)cc3)ccc2s1 [Compound 18] | 91 ± 49.4 nM |
| O=C(NO)c1cc2cc(NS(=O)(=O)Cc3ccccc3)ccc2s1 [Compound 19] | 119 ± 21.9 nM |
| O=C(NO)c1cc2cc(N(Cc3ccccc3)Cc3ccccc3)ccc2s1 [Compound 20] | 1650 ± 1160 nM |
| O=C(NO)c1cc2cc([N+](=O)O)ccc2s1 [Compound 22] | 1740 ± 63.6 nM |
| O=C(NO)C(=O)Nc1ccc2cc(C(=O)NO)sc2c1 [Compound 24] | 1170 ± 214 nM |
| O=C(NO)c1cc2cc(NS(=O)(=O)c3ccccc3)ccc2s1 [Compound 26] | 166 ± 22.6 nM |
| O=C(NO)c1cc2cc(NS(=O)(=O)c3cccc4ccccc34)ccc2s1 [Compound 27] | 102 ± 24 nM |
| O=C(Nc1ccc2cc(C(=O)NO)sc2c1)c1cccnc1 [Compound 29] | 262 ± 33.9 nM |
| O=C(Nc1ccc2cc(C(=O)NO)sc2c1)OCc1ccccc1 [Compound 30] | 113 ± 33.2 nM |
| CCOC(=O)Nc1ccc2cc(C(=O)NO)sc2c1 [Compound 31] | 350 ± 13.4 nM |
| CC(C)C(=O)Nc1ccc2sc(C(=O)NO)cc2c1 [Compound 35] | 149 ± 23.3 nM |
| O=C(Nc1ccc2sc(C(=O)NO)cc2c1)c1cccnc1 [Compound 37] | 157 nM |
| O=C(Nc1ccc2sc(C(=O)NO)cc2c1)c1ccc2ccccc2n1 [Compound 38] | 444 nM |
| O=C(NCc1ccccc1)Nc1ccc2sc(C(=O)NO)cc2c1 [Compound 40] | 72 nM |
| O=C(Nc1ccc2sc(C(=O)NO)cc2c1)c1ccc2ccccc2c1 [Compound 41] | 413 nM |
| Cc1ccc(S(=O)(=O)Nc2ccc3cc(C(=O)NO)sc3c2)cc1 [Compound 43] | 60.5 ± 2.1 nM |
| COC(=O)c1ccc2sc(C(=O)NO)cc2c1 [Compound 45] | 737 ± 143 nM |
| O=C(CN1CCN(c2ccccc2)CC1)Nc1ccc2cc(C(=O)NO)sc2c1 [Compound 46] | 37 nM |
| O=C(CN1CCc2ccccc2C1)Nc1ccc2cc(C(=O)NO)sc2c1 [Compound 47] | 24 nM |
| COc1ccc(C(=O)Nc2ccc3cc(C(=O)NO)sc3c2)cc1OC [Compound 48] | 280 nM |
| COc1ccc(CC(=O)Nc2ccc3cc(C(=O)NO)sc3c2)cc1OC [Compound 49] | 35 nM |
| O=C(Cc1cccc(F)c1)Nc1ccc2cc(C(=O)NO)sc2c1 [Compound 50] | 14 nM |
| COc1ccc(OC)c(CC(=O)Nc2ccc3cc(C(=O)NO)sc3c2)c1 [Compound 51] | 62 nM |
| COc1cccc(CC(=O)Nc2ccc3sc(C(=O)NO)cc3c2)c1 [Compound 53] | 54 nM |

Results, then the molecule that gave them:

| IC50 | Compound |
| --- | --- |
| 609 ± 24.7 nM | O=C(NO)c1cc2cc(C(F)(F)F)ccc2s1 [Compound 2] |
| 106 ± 13.4 nM | O=C(Nc1ccc2sc(C(=O)NO)cc2c1)c1ccccc1 [Compound 3] |
| 61 ± 9.8 nM | O=C(CCc1ccccc1)Nc1ccc2sc(C(=O)NO)cc2c1 [Compound 4] |
| 52 ± 19.7 nM | O=C(NCc1ccccc1)Nc1ccc2cc(C(=O)NO)sc2c1 [Compound 7] |
| 46.5 ± 23.3 nM | O=C(NO)c1cc2ccc(NS(=O)(=O)c3ccccc3)cc2s1 [Compound 10] |
| 31 ± 7 nM | O=C(Cc1ccccc1)Nc1ccc2sc(C(=O)NO)cc2c1 [Compound 15] |
| 52.5 ± 10.6 nM | O=C(NO)c1cc2cc(NS(=O)(=O)c3ccc4ccccc4c3)ccc2s1 [Compound 17] |
| 949 ± 834 nM | O=C(NO)c1cc2cc(N(Cc3ccccc3)Cc3ccccc3)ccc2s1 [Compound 21] |
| 627 ± 5.6 nM | COC(=O)c1ccc2cc(C(=O)NO)sc2c1 [Compound 23] |
| 88.5 ± 33.2 nM | O=C(NCCc1ccccc1)Nc1ccc2cc(C(=O)NO)sc2c1 [Compound 32] |
| 238 ± 2.8 nM | CCOC(=O)Nc1ccc2sc(C(=O)NO)cc2c1 [Compound 34] |
| 424 nM | O=C(NO)c1ccc2sc(C(=O)NO)cc2c1 [Compound 42] |
| 162 ± 54.4 nM | Cc1ccc(S(=O)(=O)Nc2ccc3sc(C(=O)NO)cc3c2)cc1 [Compound 44] |
| 20 nM | COc1ccccc1CC(=O)Nc1ccc2cc(C(=O)NO)sc2c1 [Compound 52] |

Same assay, conditions: Table 2, thiophene backbone; concentration for 50% inhibition of deacetylation; substrate at Km; unit inferred, text gives nm; read-out: HDAC Inhibition

| Compound | IC50 |
| --- | --- |
| O=C(NO)c1ccc(-c2ccccc2)s1 [Compound 54] | 219 nM |
| COc1cccc(-c2ccc(C(=O)NO)s2)c1 [Compound 55] | 444 ± 54.4 nM |
| O=C(NO)c1ccc(NC(=O)c2cccc3ccccc23)s1 [Compound 57] | 363 ± 16.9 nM |
| O=C(Nc1ccc(C(=O)NO)s1)c1ccc2ccccc2c1 [Compound 58] | 730 ± 127 nM |
| O=C(NCc1ccccc1)c1ccc(-c2ccc(C(=O)NO)s2)cc1 [Compound 60] | 464 ± 65 nM |
| O=C(NO)c1ccc(-c2cccc(CN(Cc3ccccc3)Cc3ccccc3)c2)s1 [Compound 61] | 1000 nM |
| O=C(NO)c1ccc(-c2cccc(CN(CCc3ccccc3)Cc3ccccc3)c2)s1 [Compound 62] | 933 ± 22.6 nM |
| O=C(/C=C/c1ccc(C(=O)NO)s1)NCc1ccccc1 [Compound 64] | 206 nM |
| O=C(/C=C/c1ccc(C(=O)NO)s1)NCC1CCCCC1 [Compound 67] | 120 nM |
| O=C(NO)c1ccc(-c2cccc(CN3CCc4ccccc4C3)c2)s1 [Compound 68] | 417 nM |
| O=C(NO)c1ccc(-c2cccc(CN(Cc3ccccc3)Cc3cnc4ccccc4c3)c2)s1 [Compound 70] | 399 nM |
| O=C(NO)c1ccc(-c2cccc(CN(Cc3ccccc3)Cc3ccnc4ccccc34)c2)s1 [Compound 71] | 461 nM |
| O=C(NO)c1ccc(-c2cccc(CN(CCc3ccccc3)Cc3cnc4ccccc4c3)c2)s1 [Compound 72] | 570 nM |
| O=C(CCc1ccc(C(=O)NO)s1)NCCc1ccccc1 [Compound 81] | 690 nM |

Second part, the molecule after the results:

| IC50 | Compound |
| --- | --- |
| 714 ± 122 nM | O=C(Nc1ccc(C(=O)NO)s1)c1ccccc1 [Compound 56] |
| 397 nM | O=C(/C=C/c1ccc(C(=O)NO)s1)Nc1ccccc1 [Compound 63] |
| 41 nM | O=C(/C=C/c1ccc(C(=O)NO)s1)NCCc1ccccc1 [Compound 65] |
| 70 nM | O=C(/C=C/c1ccc(C(=O)NO)s1)NCCCc1ccccc1 [Compound 66] |
| 174 nM | O=C(NO)c1ccc(-c2cccc(CN3CCN(c4ccccc4)CC3)c2)s1 [Compound 69] |
| 705 ± 92.6 nM | O=C(NO)c1ccc(-c2cccc(CN(CCc3ccccc3)Cc3ccnc4ccccc34)c2)s1 [Compound 73] |
| 461 nM | O=C(NO)c1ccc(-c2cccc(CN(CCCc3ccccc3)Cc3cnc4ccccc4c3)c2)s1 [Compound 74] |
| 920 ± 569 nM | O=C(NO)c1ccc(-c2cccc(CN(CCCc3ccccc3)Cc3ccnc4ccccc34)c2)s1 [Compound 75] |
| 1010 nM | O=C(NO)c1ccc(-c2cccc(CN(CCCc3ccccc3)Cc3ccccc3)c2)s1 [Compound 76] |
| 666 nM | O=C(/C=C/c1ccc(C(=O)NO)s1)NC1CCCCC1 [Compound 79] |
| 481 nM | O=C(CCc1ccc(C(=O)NO)s1)Nc1ccccc1 [Compound 80] |
| 526 nM | O=C(CCc1ccc(C(=O)NO)s1)NCCCc1ccccc1 [Compound 82] |
